Test results reported in patent US8669264B2, “Rutaecarpine derivatives for activating CYP1A2 in a subject” (Linnet Biopharmaceuticals, Inc., priority 2011, dated 2014).

System: CYP1A2
Assay: MEROD assay in live Hepa1c1c7 cells (CYP1A2 induction)
Type: cell-based, mouse
Settings: Hepa1c1c7 cells incubated with 10 μM compound
From the text: FIG. 1 illustrates how caffeine is primarily metabolized to paraxanthine via CYP1A2 enzyme in a human, according to some embodiments. The MEROD (methoxyresorufin-O-demethylase) assay measures the activity of the enzyme (CYP1A2) that converts methoxyresorufin (probe substrate) to resorufin (demethylation) in the presence of NADPH. The resulting resorufin concentration can be measured using a fluorescence reader by setting the excitation and emission wavelengths at 544 and 590 nm, respectively.
For MEROD assay in live cells, Hepa1c1c7 cells were cultured in either 6-well or 24-well-plates. For the 24-well plate experiment, after confluent cells were incubated for approximately 20 hours with either resorufin, nitro-resorufin, chloro-resorufin, 3-MC or DMSO (in triplicates), culture media was removed and 180 μL fresh culture media containing […] methoxyresorufin was added per well. After 1 hour incubation at 37° C., 100 μL aliquot was taken from each well and the formation of resorufin was measured by fluorescence. […] After 5 hours incubation at 37° C., 100 μL aliquot was taken from each well, centrifuged at 12,000 g at RT for ˜5 min and the supernatants were placed into wells of a 96-well fluorescence plate and the formation of resorufin was measured by fluorescence.

SMILES: O=c1c2ccc(Cl)cc2nc2n1CCc1c-2[nH]c2ccccc12 [chloro-rutaecarpine]
- formation of resorufin from live cells (MEROD): no marked difference
